For 15 molecules, IC50 results are on record in patent US10538555B2, “Macrocyclic inhibitors of the PD-1/PD-L1 and CD80(B7-1)/PD-L1 protein/protein interactions” (BRISTOL-MYERS SQUIBB COMPANY, priority 2014, dated 2020).

The target in this experiment is T1, Human PD-L1/PD-1 (Homo sapiens, UniProt Q9NZQ7).
T1 construct: TVMV protease cleavage site (C); made in house; host or cells: HEK293T cells
In words: HTRF Human PD-L1/PD-1 binding assay (PD-1-Ig/PD-L1-His). The note with it: PD-L1-His 10 nM, PD-1-Ig 20 nM; class symbol; read-out: HTRF Human PD-L1/PD-1 Binding Assay IC50 Range. The gist of the method: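 Soluble HEK293T-expressed proteins: hPD-L1-His 10 nM, hPD-1-Ig 20 nM final. Cpd + PD-L1 15 min, + PD-1 15 min, + Eu anti-Ig 1 nM/APC anti-His 20 nM 30 min. Buffer dPBS, 0.1% BSA, 0.05% Tween-20. TR-FRET 665/620.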

*1 amine or outer side, *2 acyl side, *3 side chain or, on linkers, in order; H or OH if unused. Where a SMILES comes first, the peptide text is derived from it. Bridges are numbered along the chain shown (N, C = ends). [ ]: non-standard residue; d: D form. ξ: configuration not given here. Trp(1-CH2COOH) = N[C@@H](Cc1cn(CC(=O)O)c2ccccc12)C(=O)O; Phe(3,4,5-F3) = N[C@@H](Cc1cc(F)c(F)c(F)c1)C(=O)O; Phe(3,4-F2) = N[C@@H](Cc1ccc(F)c(F)c1)C(=O)O; NMePhe(4-F) = CN[C@@H](Cc1ccc(F)cc1)C(=O)O; Phe(4-F) = N[C@@H](Cc1ccc(F)cc1)C(=O)O; d(cisHyp) = O=C(O)[C@H]1C[C@@H](O)CN1; Bta = N[C@@H](Cc1csc2ccccc12)C(=O)O; NMeY = CN[C@@H](Cc1ccc(O)cc1)C(=O)O; Hyp = O=C(O)[C@@H]1C[C@@H](O)CN1; NMeF = CN[C@@H](Cc1ccccc1)C(=O)O; X1 = O=C([C@H]1COCCN1[*:1])[*:2]; dHyp = O=C(O)[C@H]1C[C@H](O)CN1; NMeNle = CCCC[C@H](NC)C(=O)O; dPip = O=C(O)[C@H]1CCCCN1; NMeA = CN[C@@H](C)C(=O)O; Orn = NCCC[C@H](N)C(=O)O; dThz = O=C(O)[C@H]1CSCN1; Dab = NCC[C@H](N)C(=O)O; Dap = NC[C@H](N)C(=O)O; ξP = O=C(O)C1CCCN1; ξC = NC(CS)C(=O)O; Sar = CNCC(=O)O

T1 sequence (Q9NZQ7 with tags, fused parts or gaps): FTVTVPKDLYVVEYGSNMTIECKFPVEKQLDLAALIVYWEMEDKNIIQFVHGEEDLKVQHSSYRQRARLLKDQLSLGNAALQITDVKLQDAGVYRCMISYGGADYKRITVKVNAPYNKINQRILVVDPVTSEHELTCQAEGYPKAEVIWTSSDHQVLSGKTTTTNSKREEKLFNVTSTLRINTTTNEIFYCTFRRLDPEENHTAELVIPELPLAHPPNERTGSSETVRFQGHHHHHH

Regarding `CCCC[C@H]1C(=O)N2CCC[C@@H]2C(=O)N[C@@H](CC(=O)O)C(=O)N[C@@H](C(C)C)C(=O)N(C)[C@@H](Cc2ccccc2)C(=O)N[C@@H](CC(=O)O)C(=O)N2CCCC[C@@H]2C(=O)N[C@@H](Cc2c[nH]c3ccccc23)C(=O)N[C@@H](Cc2ccc(O)cc2)C(=O)N[C@@H](CCN)C(=O)N[C@H](C(=O)NCC(N)=O)CSCC(=O)N[C@@H](Cc2cc(F)c(F)c(F)c2)C(=O)N(C)[C@@H](Cc2ccc(F)cc2)C(=O)N1C` [Example 10571] ({CH2CO}-[Phe(3,4,5-F3)][NMePhe(4-F)][NMeNle][dP]DV[NMeF]D[dPip]WY[Dab]CG-NH2; thioether N-13), the IC50 fell in the range of 1 to 9.9 nM. As to `CCCC[C@H]1C(=O)N(C)CC(=O)N[C@@H](CC(=O)O)C(=O)N[C@@H](C(C)C)C(=O)N(C)[C@@H](Cc2ccccc2)C(=O)N[C@@H](Cc2c[nH]c3ccccc23)C(=O)N(C)CC(=O)N[C@@H](Cc2c[nH]c3ccccc23)C(=O)N[C@@H](Cc2ccc(O)cc2)C(=O)N[C@@H](CC(C)C)C(=O)N[C@H](C(=O)NCC(N)=O)CSCC(=O)N[C@@H](Cc2ccccc2)C(=O)N(C)[C@@H](Cc2ccccc2)C(=O)N1C` [Example 3231] ({CH2CO}-F[NMeF][NMeNle][Sar]DV[NMeF]W[Sar]WYLCG-NH2; thioether N-13), the IC50 was 1 to 9.9 nM. Regarding `CCCC[C@H]1C(=O)N(C)[C@@H](CCCC)C(=O)N[C@@H](CCC(=O)O)C(=O)N[C@H](C(=O)NCC(N)=O)CSCC(=O)N[C@@H](Cc2ccc(O)cc2)C(=O)N(C)[C@@H](C)C(=O)N[C@@H](CC(N)=O)C(=O)N2CCC[C@H]2C(=O)N[C@@H](CO)C(=O)N[C@@H](CCC(=O)O)C(=O)N2C[C@H](O)C[C@H]2C(=O)N[C@@H](Cc2c[nH]c3ccccc23)C(=O)N[C@@H](CCC(=O)O)C(=O)N[C@@H](Cc2c[nH]c3ccccc23)C(=O)N1C` [Example 5196] ({CH2CO}-Y[NMeA]NPSE[Hyp]WEW[NMeNle][NMeNle]ECG-NH2; thioether N-14), the IC50 was 1 to 9.9 nM. On to `CCCC[C@H]1C(=O)N(C)[C@@H](CCCC)C(=O)N[C@@H](CCC(=O)O)C(=O)N[C@H](C(=O)NCC(N)=O)CSCC(=O)N[C@@H](Cc2ccc(OC)cc2)C(=O)N(C)[C@@H](C)C(=O)N[C@@H](CCN)C(=O)N2CCC[C@H]2C(=O)N[C@@H](CN)C(=O)N[C@@H](CCC(=O)O)C(=O)N2C[C@H](O)C[C@H]2C(=O)N[C@@H](Cc2c[nH]c3ccccc23)C(=O)N[C@@H](CCN)C(=O)N[C@@H](Cc2c[nH]c3ccccc23)C(=O)N1C` [Example 7112] ({CH2CO}-Y(Me)[NMeA][Dab]P[Dap]E[Hyp]W[Dab]W[NMeNle][NMeNle]ECG-NH2; thioether N-14), for which the IC50 was in the range of 1 to 9.9 nM. In the case of `CCCC[C@H]1C(=O)N(C)[C@@H](CCCC)C(=O)N[C@@H](CC(C)C)C(=O)N[C@H](C(=O)NCC(N)=O)CSCC(=O)N[C@@H](Cc2ccc(O)cc2)C(=O)N(C)[C@@H](C)C(=O)N[C@@H](CC(N)=O)C(=O)N2CCCC2C(=O)N[C@@H](Cc2cnc[nH]2)C(=O)N[C@@H](CCC(N)=O)C(=O)N[C@H](C)C(=O)N[C@@H](Cc2c[nH]c3ccccc23)C(=O)N[C@@H](CO)C(=O)N[C@@H](Cc2c[nH]c3ccccc23)C(=O)N1C` (stereo partly drawn) [Example 6168] ({CH2CO}-Y[NMeA]N[ξP]HQ[dA]WSW[NMeNle][NMeNle]LCG-NH2; thioether N-14), the IC50 lay in the range of 10 to 99.9 nM. Regarding `CCCC[C@H]1C(=O)N2CSC[C@@H]2C(=O)N[C@@H](CC(=O)O)C(=O)N[C@@H](C(C)C)C(=O)N(C)[C@@H](Cc2ccccc2)C(=O)N[C@@H](Cc2ccc(O)cc2)C(=O)N2CCC[C@@H]2C(=O)N[C@@H](Cc2c[nH]c3ccccc23)C(=O)N[C@@H](Cc2ccc(O)cc2)C(=O)N[C@@H](CC(C)C)C(=O)N[C@H](C(=O)NCC(N)=O)CSCC(=O)N[C@@H](Cc2ccccc2)C(=O)N(C)[C@@H](Cc2ccccc2)C(=O)N1C` [Example 10072] ({CH2CO}-F[NMeF][NMeNle][dThz]DV[NMeF]Y[dP]WYLCG-NH2; thioether N-13), the IC50 is 1 to 9.9 nM. Turning to `CCCC[C@H]1C(=O)N(C)[C@@H](CCCC)C(=O)N[C@@H](CCCNC(=N)N)C(=O)NC(C(=O)NCC(N)=O)CSCC(=O)N[C@@H](Cc2ccc(O)cc2)C(=O)N(C)[C@@H](C)C(=O)N[C@@H](Cc2cnc[nH]2)C(=O)N2CCC[C@H]2C(=O)N[C@@H](CC(N)=O)C(=O)N[C@@H](CC(C)C)C(=O)N2C[C@H](O)C[C@H]2C(=O)N[C@@H](Cc2c[nH]c3ccccc23)C(=O)N[C@@H](CO)C(=O)N[C@@H](Cc2csc3ccccc23)C(=O)N1C` (stereo partly drawn) [Example 9147] ({CH2CO}-Y[NMeA]HPNL[Hyp]WS[Bta][NMeNle][NMeNle]R[ξC]G-NH2; thioether N-14), the IC50 is 1 to 9.9 nM. In the case of `CCCC[C@H]1C(=O)N(C)[C@@H](CCCC)C(=O)N[C@@H](CC(C)C)C(=O)N[C@H](C(=O)NCC(N)=O)CSCC(=O)N[C@@H](Cc2ccc(O)cc2)C(=O)N(C)[C@@H](C)C(=O)N[C@@H](CC(N)=O)C(=O)N(C)[C@@H](C)C(=O)N[C@@H](Cc2cnc[nH]2)C(=O)N[C@@H](CCC(N)=O)C(=O)N2C[C@H](O)C[C@H]2C(=O)N[C@@H](Cc2c[nH]c3ccccc23)C(=O)N[C@@H](CO)C(=O)N[C@@H](Cc2c[nH]c3ccccc23)C(=O)N1C` [Example 5234] ({CH2CO}-Y[NMeA]N[NMeA]HQ[Hyp]WSW[NMeNle][NMeNle]LCG-NH2; thioether N-14), the IC50 was 1 to 9.9 nM.

On to `CCCC[C@H]1C(=O)N[C@@H](CCC(N)=O)C(=O)N2CCC[C@@H]2C(=O)N[C@@H](Cc2c[nH]c3ccccc23)C(=O)N[C@@H](Cc2ccc(O)cc2)C(=O)N[C@@H](CCCN)C(=O)N[C@H](C(=O)NCC(N)=O)CSCC(=O)N[C@@H](Cc2ccc(F)cc2)C(=O)N(C)[C@@H](Cc2ccccc2)C(=O)N(C)[C@@H](CCCC)C(=O)N2CCC[C@@H]2C(=O)N[C@@H](CC(=O)O)C(=O)N[C@@H](C(C)C)C(=O)N1C` [Example 9217] ({CH2CO}-[Phe(4-F)][NMeF][NMeNle][dP]DV[NMeNle]Q[dP]WY[Orn]CG-NH2; thioether N-13), for which the IC50 lay within 100 to 990 nM. With `CCCC[C@H]1C(=O)N(C)[C@@H](CCCC)C(=O)N[C@@H](CCCNC(=N)N)C(=O)N[C@H](C(=O)NCC(N)=O)CSCC(=O)N[C@@H](Cc2ccc(O)cc2)C(=O)N(C)[C@@H](C)C(=O)N[C@@H](CC(=O)O)C(=O)N2CCC[C@H]2C(=O)N[C@@H](Cc2c[nH]cn2)C(=O)N[C@@H](CCCCN)C(=O)N2C[C@H](O)C[C@H]2C(=O)N[C@@H](Cc2c[nH]c3ccccc23)C(=O)N[C@@H](CCCCN)C(=O)N[C@@H](Cc2csc3ccccc23)C(=O)N1C` [Example 5256], the IC50 was in the range of 10 to 99.9 nM.

For the molecule `CCCC[C@H]1C(=O)N2CCOC[C@@H]2C(=O)N[C@@H](CC(=O)O)C(=O)N[C@@H](C(C)C)C(=O)N(C)[C@@H](Cc2ccccc2)C(=O)N[C@@H](CCC(=O)O)C(=O)N2CCOC[C@@H]2C(=O)N[C@@H](Cc2c[nH]c3ccccc23)C(=O)N[C@@H](Cc2ccc(O)cc2)C(=O)N[C@@H](CC(C)C)C(=O)N[C@H](C(=O)NCC(N)=O)CSCC(=O)N[C@@H](Cc2ccc(F)c(F)c2)C(=O)N(C)[C@@H](Cc2ccccc2)C(=O)N1C` [Example 9281] ({CH2CO}-[Phe(3,4-F2)][NMeF][NMeNle][X1]DV[NMeF]E[X1]WYLCG-NH2; thioether N-13), the IC50 fell in the range of 1 to 9.9 nM.

Turning to `CCCC[C@H]1C(=O)N(C)[C@@H](CCCC)C(=O)N[C@@H](CC(C)C)C(=O)N[C@H](C(=O)NCC(N)=O)CSCC(=O)N[C@@H](Cc2ccc(O)cc2)C(=O)N(C)[C@@H](C)C(=O)N[C@@H](CC(N)=O)C(=O)N2CCC[C@H]2C(=O)N[C@@H](CN)C(=O)N[C@@H](CCC(=O)O)C(=O)N2C[C@H](O)C[C@H]2C(=O)N[C@@H](Cc2c[nH]c3ccccc23)C(=O)N[C@@H](CCN)C(=O)N[C@@H](Cc2cn(CC(=O)O)c3ccccc23)C(=O)N1C` [Example 6146] ({CH2CO}-Y[NMeA]NP[Dap]E[Hyp]W[Dab][Trp(1-CH2COOH)][NMeNle][NMeNle]LCG-NH2; thioether N-14), the IC50 fell in the range of 1 to 9.9 nM. Take `CCCC[C@H]1C(=O)N2C[C@@H](O)C[C@@H]2C(=O)N[C@@H](CC(=O)O)C(=O)N[C@@H](C(C)C)C(=O)N(C)[C@@H](Cc2ccc(F)cc2)C(=O)N[C@@H](CCCN)C(=O)N2CCC[C@@H]2C(=O)N[C@@H](Cc2c[nH]c3ccccc23)C(=O)N[C@@H](Cc2ccc(O)cc2)C(=O)N[C@@H](CC(C)C)C(=O)N[C@H](C(=O)NCC(N)=O)CSCC(=O)N[C@@H](Cc2cc(F)c(F)c(F)c2)C(=O)N(C)[C@@H](Cc2ccccc2)C(=O)N1C` [Example 10118] ({CH2CO}-[Phe(3,4,5-F3)][NMeF][NMeNle][dHyp]DV[NMePhe(4-F)][Orn][dP]WYLCG-NH2; thioether N-13): the IC50 was 1 to 9.9 nM. Regarding `CCCC[C@H]1C(=O)N2CCC[C@@H]2C(=O)N[C@@H](CCN)C(=O)N[C@@H](C(C)C)C(=O)N(C)[C@@H](Cc2ccccc2)C(=O)N[C@@H](CCC(=O)O)C(=O)N2CCCC[C@@H]2C(=O)N[C@@H](Cc2c[nH]c3ccccc23)C(=O)N[C@@H](Cc2ccc(O)cc2)C(=O)N[C@@H](CC(C)C)C(=O)N[C@H](C(=O)NCC(N)=O)CSCC(=O)N[C@@H](Cc2cc(F)c(F)c(F)c2)C(=O)N(C)[C@@H](Cc2ccc(F)cc2)C(=O)N1C` [Example 10577] ({CH2CO}-[Phe(3,4,5-F3)][NMePhe(4-F)][NMeNle][dP][Dab]V[NMeF]E[dPip]WYLCG-NH2; thioether N-13), the IC50 was 1 to 9.9 nM. In the case of `CCCC[C@H]1C(=O)N2CCC[C@@H]2C(=O)N[C@@H](CC(=O)O)C(=O)N[C@@H](C(C)C)C(=O)N(C)[C@@H](Cc2ccccc2)C(=O)N[C@@H](CCC(=O)O)C(=O)N2C[C@H](O)C[C@@H]2C(=O)N[C@@H](Cc2c[nH]c3ccccc23)C(=O)N[C@@H](Cc2ccc(O)cc2)C(=O)N[C@@H](CCCN)C(=O)N[C@H](C(=O)NCC(N)=O)CSCC(=O)N[C@@H](Cc2cc(F)c(F)c(F)c2)C(=O)N(C)[C@@H](Cc2ccc(O)cc2)C(=O)N1C` [Example 10632] ({CH2CO}-[Phe(3,4,5-F3)][NMeY][NMeNle][dP]DV[NMeF]E[d(cisHyp)]WY[Orn]CG-NH2; thioether N-13), the IC50 was 1 to 9.9 nM.
